# Test results reported in paper PMC7944240 (Anesthesiology, 2020).
# Legend:
# [1] = molecular target: T1, α1β3γ2L GABAA receptors (Homo sapiens, UniProt P14867+P18507+P28472); format: cell-based
# [2] = system: GABAA receptor; conditions: cited from earlier work
# [3] = molecular target: T1, α1β3γ2L GABAA receptors; format: cell-based; remark: listed apart in the source
# [4] = system: zebrafish larvae; assay: Zebrafish larvae photomotor response; format: in vivo, Danio rerio; conditions: for EC50: Danio rerio, read-out: EC50 for abolishing zebrafish larvae motor responses to a light stimulus
# [5] = molecular target: T1, α1β3γ2L GABAA receptors; format: cell-based; conditions: for IC50: IC50 for antagonizing direct activation by 20 μM etomidate in the presence of flumazenil, [Benzodiazepine]:[Flumazenil] = 1:2
# [6] = molecular target: purified α1β3γ2L GABAA receptors (Homo sapiens, UniProt P14867+P18507+P28472); assay: Inhibition of R-[3H]azietomidate photoaffinity labeling of purified receptors; conditions: at up to 300 μM
# purified α1β3γ2L GABAA receptors, sequence (P14867 28-456): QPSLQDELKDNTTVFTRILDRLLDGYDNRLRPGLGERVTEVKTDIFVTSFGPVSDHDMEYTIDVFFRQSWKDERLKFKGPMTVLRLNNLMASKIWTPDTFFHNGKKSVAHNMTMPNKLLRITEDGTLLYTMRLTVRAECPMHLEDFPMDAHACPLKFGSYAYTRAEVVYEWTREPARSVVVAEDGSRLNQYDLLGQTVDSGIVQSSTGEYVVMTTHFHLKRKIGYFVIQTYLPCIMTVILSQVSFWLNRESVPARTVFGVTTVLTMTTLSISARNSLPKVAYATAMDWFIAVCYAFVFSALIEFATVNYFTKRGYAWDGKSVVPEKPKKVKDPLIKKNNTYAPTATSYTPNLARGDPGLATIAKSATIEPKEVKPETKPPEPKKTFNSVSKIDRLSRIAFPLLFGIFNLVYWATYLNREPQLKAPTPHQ
# purified α1β3γ2L GABAA receptors, sequence (P28472 26-473): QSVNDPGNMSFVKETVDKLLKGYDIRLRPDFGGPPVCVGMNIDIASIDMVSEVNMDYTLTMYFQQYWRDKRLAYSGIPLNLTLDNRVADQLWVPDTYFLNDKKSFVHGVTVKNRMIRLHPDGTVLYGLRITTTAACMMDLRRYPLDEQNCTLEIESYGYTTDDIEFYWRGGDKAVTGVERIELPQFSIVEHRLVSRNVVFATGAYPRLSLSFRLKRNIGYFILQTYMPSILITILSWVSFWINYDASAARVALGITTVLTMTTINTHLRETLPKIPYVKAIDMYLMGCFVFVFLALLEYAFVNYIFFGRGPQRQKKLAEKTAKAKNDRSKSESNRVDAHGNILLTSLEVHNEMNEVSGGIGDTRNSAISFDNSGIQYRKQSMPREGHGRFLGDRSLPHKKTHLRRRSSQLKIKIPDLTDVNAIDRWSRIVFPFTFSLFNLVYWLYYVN
# purified α1β3γ2L GABAA receptors, sequence (P18507 40-475): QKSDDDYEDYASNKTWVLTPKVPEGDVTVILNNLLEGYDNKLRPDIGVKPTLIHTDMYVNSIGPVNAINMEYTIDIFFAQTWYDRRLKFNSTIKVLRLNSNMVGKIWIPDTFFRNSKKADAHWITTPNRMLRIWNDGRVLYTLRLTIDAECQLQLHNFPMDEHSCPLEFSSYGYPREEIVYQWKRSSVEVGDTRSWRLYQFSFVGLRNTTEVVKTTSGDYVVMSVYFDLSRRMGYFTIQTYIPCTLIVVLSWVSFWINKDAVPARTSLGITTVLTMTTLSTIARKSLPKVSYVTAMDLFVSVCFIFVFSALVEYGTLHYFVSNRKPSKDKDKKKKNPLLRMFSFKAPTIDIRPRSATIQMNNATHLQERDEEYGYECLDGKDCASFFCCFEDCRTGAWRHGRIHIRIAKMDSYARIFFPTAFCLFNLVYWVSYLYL
# [7] = system: purified GABAA receptors; conditions: cited from earlier work
# T1 sequence (P14867 28-456): as the sequence (P14867 28-456) above
# T1 sequence (P28472 26-473): as the sequence (P28472 26-473) above
# T1 sequence (P18507 40-475): as the sequence (P18507 40-475) above
compound,measurement,setting,value
CN1C(=O)CN=C(c2ccccc2)c2cc(Cl)ccc21 [Diazepam],Schild slope,"[1]; against etomidate direct activation, flumazenil present (1:4)",1.1
same,potentiation of currents activated by low concentrations of GABA via the etomidate binding site,[2],no more than two- to threefold
same,reduction of GABA-activated peak current amplitudes at micromolar concentrations,[3]; 6 μM GABA,did not see a similar reduction
same,effect on zebrafish larvae motor responses to light stimulus,"[4]; 50 μM, alone, no flumazenil",essentially abolishes
Clc1ccc2c(c1)C(c1ccccc1)=NCc1nncn1-2 [Estazolam],IC50,[5],59 µM
CN1C(=O)CN=C(c2ccccc2F)c2cc(Cl)ccc21 [Fludiazepam],IC50,[5],390 µM
same,"etomidate inhibitory potency, fold lower than diazepam",[5]; relative to diazepam,30 ×
CCOC(=O)c1ncn2c1CN(C)C(=O)c1cc(F)ccc1-2 [Flumazenil],impact on GABA-activated currents in the absence of diazepam,[3]; data not shown,no impact
same,impact on etomidate-activated currents in the absence of diazepam,[5]; data not shown,no impact
same,effect on R-[3H]azietomidate photo-incorporation,[6],little inhibitory effect
O=C1Nc2ccc(Cl)cc2C(c2ccccc2Cl)=NC1O (stereo not drawn) [Lorazepam],IC50,[5],≥ 1000 µM
CN1CCN=C(c2ccccc2)c2cc(Cl)ccc21 [Medazepam],IC50,[5],≥ 1000 µM
Cc1ncc2n1-c1ccc(Cl)cc1C(c1ccccc1F)=NC2 [Midazolam],IC50,[5],560 µM
O=C1CN=C(c2ccccc2)c2cc([N+](=O)[O-])ccc2N1 [Nitrazepam],IC50,[5],130 µM
O=C1CN=C(c2ccccc2)c2cc(Cl)ccc2N1 [Nordiazepam],IC50,[5],32 µM
CCOC(=O)c1cncn1[C@H](C)c1ccccc1 [etomidate],Hill slope of etomidate concentration-response curve,[1]; Schild analysis,2.1
same,potentiation of currents activated by low concentrations of GABA,[2]; high concentrations,more than an order of magnitude
same,EC50,[4],0.66 µM
CN1C(=O)CN=C(c2ccccc2F)c2cc([N+](=O)[O-])ccc21 [flunitrazepam],reduction in apparent affinity with purified GABAA receptors,[7],sevenfold
CNC1(c2ccccc2Cl)CCCCC1=O (stereo not drawn) [ketamine],EC50,[4],170 µM
same,fold leftward shift of anesthetic concentration-response curve,[4]; by 50 μM diazepam plus 200 μM flumazenil,19 fold
